Values after ≈ are worked out from the molar mass of the structure shown. Read-outs that look alike come from different tables or passages of the source.

Experiment [1] has as its system Helicobacter pylori standard strains ATCC 43504, ATCC 43629, ATCC 43570 and clinically separated strains. The experiment is described as follows: Anti-Helicobacter pylori activity (MIC), standard and clinically separated strains, Pharmacological Test Example 2. In kind it is cell-based. The procedure: For the bacterium Helicobacter pylori, standard strains ATCC 43504, ATCC 43629 and ATCC 43570 were used to perform in vitro tests in Columbia agar medium. The bacteria were cultured at 37° C. and pH 7.0 for 3 days. On the 4th day, the minimum growth inhibitory concentration (MIC, μg/ml) was determined. Each of the specimens was dissolved in a 1% DMSO solution. Furthermore, amoxicillin and clarithromycin were used as control drugs of antibacterial substance. Further, the compound described in the article of Thomas C. Kuehler (J. Med.

Experiment [2] deals with clinically separated clarithromycin-resistant strains and amoxicillin-insensitive strains of Helicobacter pylori. Description: Antibacterial potency (MIC) against clarithromycin-resistant and amoxicillin-insensitive strains, Pharmacological Test Example 3. The class given is cell-based. The procedure:
A test was conducted on the antibacterial potency of the compounds of the present invention against the clarithromycin-resistant strains and amoxicillin-insensitive strains of the bacterium Helicobacter pylori.
A test was conducted on the antibacterial potency of the compounds of the present invention, using clinically separated clarithromycin-resistant strains and amoxicillin-insensitive strains of the bacterium Helicobacter pylori. For the respective strains, in vitro tests were performed in Columbia agar medium. Each of the specimens was dissolved in a 1% DMSO solution. The bacteria were cultured at 37° C. and pH 7.0 for 3 days, and on the 4th day, the minimum growth inhibitory concentration (MIC, μg/ml) was determined.

Experiment [3] deals with Escherichia coli (ATCC 10536). The experiment is described as follows: Antibacterial test (MIC), Gram-negative bacteria. In kind it is cell-based. An excerpt:
(§1) As for the Gram-negative bacteria, E. coli (ATCC 10536, ATCC 25922), Klebsiella pneumonia (ATCC 10031), Proteus vulgaris (ATCC 13315), Pseudomonas aeruginosa (ATCC 9027), and Salmonella typhimurium (ATCC 13311) were used, and as for the Gram-positive bacteria, Staphylococcus aureus, MRSA (ATCC 33591), Staphylococcus epidermidis (ATCC 12228), Streptococcus pneumonia (ATCC 6301), Mycobacterium ranae (ATCC 110), and Enterococcus faecalis (VRE, ATCC 51575) were used. The various bacteria were cultured at 37° C. for 20 to 48 hours by conventional methods, and the minimum growth inhibitory concentration (MIC, μg/ml) was determined. Each of the specimens was dissolved in a 1% DMSO solution. Furthermore, amoxicillin, clarithromycin and gentamycin were used as control drugs of antibacterial substance.

Experiment [4] relates to Escherichia coli (ATCC 25922). The experiment is described as follows: Antibacterial test (MIC), Gram-negative bacteria. The class given is cell-based.
Source text: as §1

The test system of experiment [5] is Proteus vulgaris (ATCC 13315). Description: Antibacterial test (MIC), Gram-negative bacteria. In kind it is cell-based.
Source text: as §1

Experiment [6] relates to Pseudomonas aeruginosa (ATCC 9027). Description: Antibacterial test (MIC), Gram-negative bacteria. The class given is cell-based.
Source text: as §1

The subject of experiment [7] is Salmonella typhimurium (ATCC 13311). Description: Antibacterial test (MIC), Gram-negative bacteria. In kind it is cell-based.
Source text: as §1

Experiment [8] has as its system Enterococcus faecalis (VRE, ATCC 51575). The experiment is described as follows: Antibacterial test (MIC), Gram-positive bacteria. The class given is cell-based.
Source text: as §1

For experiment [9], the system named is Staphylococcus aureus, MRSA (ATCC 33591). Description: Antibacterial test (MIC), Gram-positive bacteria. The class given is cell-based.
Source text: as §1

In experiment [10] the test system is Streptococcus pneumonia (ATCC 6301). Description: Antibacterial test (MIC), Gram-positive bacteria. In kind it is cell-based. The following applies: Streptococcus pneumoniae, ATCC6301.
Source text: as §1

Experiment [11] concerns Helicobacter pylori bacteria (ATCC 43504). The experiment is described as follows: Antiulcer action and bacteria eradicating action in Helicobacter pylori-infected Mongolian gerbils. The class given is in vivo. As to conditions: for Number of Bacteria (average) (log CFU): gastric mucosa. The protocol:
Mongolian gerbils were experimentally infected with Helicobacter pylori bacteria, and the antiulcer action and the Helicobacter pylori bacteria eradicating action of the compounds of the present invention were tested.
Male Mongolian gerbils (30 to 40 g), five animals in each group, were orally inoculated with Helicobacter pylori bacteria (ATCC 43504) at 1.6×10^7 CFU/0.5 ml/mouse, and bred for one week, and then drug was administered two times a day for two weeks. Thereafter, the […] were bred for three weeks, and then the rats were fasted for 18 hours and subjected to abdominal section, followed by autopsy. The severity of gastric ulcer, the number of Helicobacter pylori bacteria in the gastric mucosa, and the antibody titer were measured.

For experiment [12], the system named is Klebsiella pneumonia (ATCC 10031). The experiment is described as follows: Antibacterial test (MIC), Gram-negative bacteria. In kind it is cell-based.
Source text: as §1

For experiment [13], the system named is Mycobacterium ranae (ATCC 110). Description: Antibacterial test (MIC), Gram-positive bacteria. In kind it is cell-based.
Source text: as §1

Experiment [14] deals with Staphylococcus epidermidis (ATCC 12228). The experiment is described as follows: Antibacterial test (MIC), Gram-positive bacteria. In kind it is cell-based.
Source text: as §1

The mark [15] stands for this setting: Clinically separated strain PT1045482.
Setting [16] is: Clinically separated strain PT1045483.
[17] abbreviates: Clinically separated strain PT1045484.
Where [18] appears, read: Helicobacter pylori, AMO-insensitive strain NO. 4, read-out: MIC.
Setting [19] is: Helicobacter pylori, CAM-resistant strain NO. 1, read-out: MIC.
Setting [20] is: Helicobacter pylori, CAM-resistant strain NO. 2, read-out: MIC.
Setting [21] is: Helicobacter pylori, CAM-resistant strain NO. 3, read-out: MIC.
The mark [22] stands for this setting: Helicobacter pylori, CAM-resistant strain NO. 4, read-out: MIC.
Setting [23] is: Salmonella enterica, read-out: MIC.

For the compound `CC1(C)S[C@@H]2[C@H](NC(=O)[C@H](N)c3ccc(O)cc3)C(=O)N2[C@H]1C(=O)O` [AMPC, Amoxicillin], the MIC was 0.06 µg/mL (≈ 0.164 µM) in experiment [1] (setting [15]); 0.06 µg/mL (≈ 0.164 µM) in [1] (setting [16]); 0.06 µg/mL (≈ 0.164 µM) in experiment [1] (setting [17]); 0.06 µg/mL (≈ 0.164 µM) in [1] (Standard strain ATCC 43504); < 0.015 µg/mL in experiment [1] (Standard strain ATCC 43570); 0.06 µg/mL (≈ 0.164 µM) in [1] (Standard strain ATCC 43629). Besides, the MIC in experiment [2] (AMO-insensitive strain NO. 2) is 0.25 µg/mL (≈ 0.684 µM); in experiment [2] (AMO-insensitive strain NO. 3) it was 0.25 µg/mL (≈ 0.684 µM); in experiment [2] (Helicobacter pylori) it was 0.25 µg/mL (≈ 0.684 µM); in experiment [2] (setting [18]), 0.12 µg/mL (≈ 0.328 µM); in [2] (setting [19]), < 0.015 µg/mL; in experiment [2] (setting [20]), < 0.015 µg/mL. The MIC in [2] (setting [21]) is < 0.015 µg/mL; in [2] (setting [22]), < 0.015 µg/mL; in experiment [3] (ATCC10536, read-out: MIC), 6.25 µg/mL (≈ 17.1 µM); in experiment [4] (ATCC25922, read-out: MIC) it was 6.25 µg/mL (≈ 17.1 µM); in experiment [5] (ATCC13315, read-out: MIC), 6.25 µg/mL (≈ 17.1 µM); in experiment [6] (ATCC9027, read-out: MIC) it was > 100 µg/mL. Besides, the MIC in experiment [7] (setting [23]) was 0.3 µg/mL (≈ 0.821 µM); in experiment [8], 0.3 µg/mL (≈ 0.821 µM); in [9] (read-out: MIC) it was 0.1 µg/mL (≈ 0.274 µM); in experiment [10] it was 0.01 µg/mL (≈ 0.0274 µM). Besides, in experiment [11] (10 mg/kg), the “Antibody titer (average)” value is 0.40. In addition, in experiment [11] (10 mg/kg), the “Number of Bacteria (average) (log CFU)” value was found to be 5.0 log CFU. Besides, the “Number of Ulcers discovered” value in [11] (10 mg/kg, two times a day for two weeks) is 4/5. The responders at 10 mg/kg in experiment [11] (Helicobacter pylori, ATCC43504, 336 h, 10 mg/kg, two times a day for two weeks, read-out: Eradication rate (%)) was determined as 20%.
Take `CC[C@H]1OC(=O)[C@H](C)[C@@H](O[C@H]2C[C@@](C)(OC)[C@@H](O)[C@H](C)O2)[C@H](C)[C@@H](O[C@@H]2O[C@H](C)C[C@H](N(C)C)[C@H]2O)[C@](C)(OC)C[C@@H](C)C(=O)[C@H](C)[C@@H](O)[C@]1(C)O` [CAM, Clarithromycin]: the MIC in experiment [1] (setting [15]) is 0.3 µg/mL (≈ 0.401 µM); in experiment [1] (setting [16]) it was 0.3 µg/mL (≈ 0.401 µM); in experiment [1] (setting [17]), 0.3 µg/mL (≈ 0.401 µM); in experiment [1] (Standard strain ATCC 43504) it was 0.1 µg/mL (≈ 0.134 µM); in experiment [1] (Standard strain ATCC 43570), < 0.015 µg/mL; in experiment [1] (Standard strain ATCC 43629), 0.1 µg/mL (≈ 0.134 µM). Further, the MIC was determined as 0.06 µg/mL (≈ 0.0802 µM) in experiment [2] (Helicobacter pylori, AMO-insensitive strain NO. 1, read-out: MIC); 0.03 µg/mL (≈ 0.0401 µM) in experiment [2] (Helicobacter pylori, AMO-insensitive strain NO. 2, read-out: MIC); 0.06 µg/mL (≈ 0.0802 µM) in [2] (Helicobacter pylori, AMO-insensitive strain NO. 3, read-out: MIC); 0.03 µg/mL (≈ 0.0401 µM) in [2] (setting [18]); 32 µg/mL (≈ 42.8 µM) in experiment [2] (setting [19]); 8 µg/mL (≈ 10.7 µM) in experiment [2] (setting [20]). In addition, the MIC is 64 µg/mL (≈ 85.6 µM) in experiment [2] (setting [21]); 32 µg/mL (≈ 42.8 µM) in experiment [2] (setting [22]); 50 µg/mL (≈ 66.8 µM) in experiment [3] (ATCC10536, read-out: MIC); 50 µg/mL (≈ 66.8 µM) in [4] (ATCC25922, read-out: MIC); 100 µg/mL (≈ 134 µM) in [5] (ATCC13315, read-out: MIC); > 100 µg/mL in [6] (ATCC9027, read-out: MIC). For the same compound, the MIC in experiment [7] (setting [23]) worked out at 25 µg/mL (≈ 33.4 µM); in experiment [8], 0.1 µg/mL (≈ 0.134 µM); in experiment [9] (read-out: MIC), 0.1 µg/mL (≈ 0.134 µM); in experiment [10], 0.02 µg/mL (≈ 0.0267 µM). In addition, the “Antibody titer (average)” value in [11] (30 mg/kg) was found to be 0.35. Also, the “Number of Bacteria (average) (log CFU)” value in experiment [11] (30 mg/kg) was 5.2 log CFU. Moreover, the “Number of Ulcers discovered” value in experiment [11] (30 mg/kg, two times a day for two weeks) was 4/5. Besides, the responders at 30 mg/kg in experiment [11] (Helicobacter pylori, ATCC43504, 336 h, 30 mg/kg, two times a day for two weeks, read-out: Eradication rate (%)) came to 20%.
With Gentamycin [GEM], the MIC in experiment [3] was determined as 0.3 µg/mL; in experiment [4], 1.0 µg/mL; in experiment [12], 1.0 µg/mL; in [5] it was 0.3 µg/mL; in [6], 0.3 µg/mL; in [7], 1.0 µg/mL. The MIC turned out to be 0.3 µg/mL in experiment [13], 1.0 µg/mL in experiment [9] and 0.1 µg/mL in experiment [14].

As a reminder, the MIC is the lowest concentration that inhibits growth of the organism.

The values are drawn from patent US8778975B2, “Helicobacter pylori eradicating agent having inhibitory activity on gastric acid secretion” (Link Geonomics, Inc., priority 2006, dated 2014).
